Measured values: US11577248B2, “Biological membrane-based sensor” (McMaster University, priority 2017, dated 2023)

How the values were obtained:
[1] = system: human red blood cell membranes; assay: HBLOC sensor: cyclic voltammetry with ferricyanide on RBC membrane-coated nanostructured gold electrodes; conditions: ferricyanide redox indicator, FIG. 10
From the text: Inventors have developed a method which isolates human red blood cells on a silicon chip for use as a safe and quantitative test for hemolytic bacteria. To develop our human blood cells on a chip, a sample of human blood is exposed to a hypotonic solution which causes the RBC's to burst and empty their contents. A series of sonication and washing steps are then applied to isolate only the RBC membrane, and to remove all hemoglobin and other contaminants. The result is a solution of empty membrane sacks known as RBC “ghosts”. This solution is then applied to sensors and allowed to slowly dry, leaving behind stacked sheets of RBC membrane. The sensors use nanostructured gold electrodes, functionalized for the application of the RBC membranes and maximizing the surface area for increased sensitivity of the tests. The coated electrodes are then used as part of a 3-electrode electrochemical cell, where any damage to the cell membrane allows a redox-indicator in solution to access the electrode surface. Under cyclic voltammetry or chronoamperometry measurements the reduction/oxidation of the indicator molecule gives rise to a current that is proportional to the amount of membrane damage. […] Membrane damage was quantitatively measured using ferricyanide as the redox indicator and cyclic voltammetry. […]

RBC membranes = assay: X-ray diffraction of RBC/aspirin complexes (multi-lamellar RBC membranes on silicon wafers); design: species or system human
From the text: X-ray scattering data was obtained using the Biological Large Angle Diffraction Experiment (BLADE) in the Laboratory for Membrane and Protein Dynamics at McMaster University. BLADE uses a 9 kW (45 kV, 200 mA) CuKα rotating anode at a wavelength of 1.5418 Å. Both source and detector are mounted on movable arms such that the membranes stay horizontal during the measurements. Focusing multi-layer optics provides a high intensity parallel beam with monochromatic X-ray intensities up to 10^10 counts/(mm^2·s). This beam geometry provides optimal illumination of the solid supported membrane samples to maximize the scattering signal. Note that there is no risk of sample damage using this in-house technique because of the large beam size and relatively low intensity of the X-ray beam as compared to synchrotron sources. The result of an X-ray experiment is a 2-dimensional intensity map of a large area of the reciprocal space, as sketched in FIG. 5. The corresponding real-space length scales are determined by d=2π/ ? and cover length scales from about 2.5 to 100 Å. All scans were measured at 28° C. and 50% relative humidity (RH) hydration. As depicted in FIG. 5a), the wafers were oriented in the X-ray diffractometer, such that the q∥-axis probed lateral structure, parallel to the wafer surface, and the perpendicular axis, qz, probed out-of-plane structure, perpendicular to the substrate. The out-of-plane structure of the membrane was determined using specular reflectivity. The relative electron density, ρ(z), is approximated by a 1-dimensional Fourier analysis. [formula] N is the highest order of the Bragg peaks observed in the experiment. The integrated peak intensities, I, are multiplied by q, to receive the form factors, F(q,). The bilayer form factor F(qz), which is in general a complex quantity, is real-valued in the case of centro-symmetry. The phase problem of crystallography, therefore, simplifies to the sign problem F(qz)=±|F(qz)| and the phases, ν, can only take the values±1. The phases, ν, are needed to reconstruct the electron density profile from the scattering data following Eq. (1). When the membrane form factor F(qz) is measured at several qz values, a continuous function, T(qz), which is proportional to F(qz), can be fitted to the data. Once an analytical expression for T(qz) has been determined from fitting the experimental peak intensities, the phases ν, can be assessed from T(qz). The phase array ν, =[−1−1 1−1 1] was used for all samples. The electron densities determined by Eq. (1) are on a relative scale. In order to compare the electron densities in FIGS. 6c) and 7c), ρ in the membrane centre at z=0 was set to 0 and the electron density at the boundaries (z values between 25 and 30 Å depending on the lamellar spacing), which probe the water layer between the stacked membranes, were scaled to the electron density of water of ρ=0.33 e^−/Å^3. In order to prepare complexes of RBC membranes containing increasing amounts of aspirin, a solution of 9 mg/mL acetylsalicylic acid (molecular weight 180 g/mol) in 18.2 MΩ·cm water was prepared. 2 μL, 3 μL, 4 μL, 5 μL, and 6 μL of this solution were added to 100 μL of the final ghosts solution resulting in acetylsalicylic acid concentrations of 1 mM, 1.5 mM, 2 mM, 2.5 mM and 3 mM. The resulting solutions were applied onto silicon wafers and dried slowly and incubated for 5 days following the above protocol. The in-plane peaks are the result of a hexagonal packing of the lipid tails in the hydrophobic membrane core (planar group p6). The distance between two acyl tails is determined to be α=4π/(√3q), where q∥ is the position of the corresponding correlation peak. The area per lipid chain is obtained to AT=(√3/2) α^2 Lipid tail distances in lo and ld domains and lipid tail areas are listed in Table 1. […]

SMILES	membrane damage: reduction and oxidation peak currents [1]	ASA concentration at which lamellar spacing and membrane thickness of lo and ld domains coincide (RBC membranes; 0-3 mM ASA series) [mM]	effect on lamellar spacing and membrane thickness of ld lipid domains (RBC membranes; 1-3 mM ASA)	overall lamellar spacing of the RBC membranes (RBC membranes; ASA concentration of 2.5 mM) [Å]	overall membrane thickness (RBC membranes; ASA concentration of 2.5 mM) [Å]	domain preference of the interaction with RBC membranes (RBC membranes; electron densities of lo and ld domains, 1 mM ASA)	effect on lipid spacing in the ld domain (RBC membranes; in presence of aspirin)	distance between lipids alo in lo domains (RBC membranes; in presence of aspirin, increase from 4.69 Å in pure RBC membranes) [Å]	lipid tail area in lo domains (RBC membranes; in presence of aspirin, increase from 19.04 Å^2 in pure RBC membranes) [Å^2]	effect on lipid domain sizes (RBC membranes; increasing ASA content)	effect on peptide domain size (RBC membranes; increasing ASA content)	location of aspirin in the membrane (|z| of increased electron density, head group region) (RBC membranes; lo lipid domains, RBC membranes + 1 mM ASA vs pure RBC membrane) [Å]
CCCCCCCCCCCCOS(=O)(=O)[O-].[Na+] [SDS, sodium dodecyl sulfate]	increases in the reduction and oxidation peak currents	–	–	–	–	–	–	–	–	–	–	–
CC(=O)Oc1ccccc1C(=O)O [aspirin, acetylsalicylic acid]	–	2.5	not affected	53.4	41.8	preferably interacts with lo regions	unchanged	4.85	20.37	approximately independent of aspirin concentration	slight increase in peptide domain size	~22.8
